The source of these data is patent EP1215202A1, “Intermediates for the preparation of possibly substituted 8-cyano-1-cyclopropyl-7-(2,8-diazabicyclo-(4.3.0)-nonan-8-yl)-6-fluoro-1,4-dihydro-4-oxo-3-quinolin carboxylic acids and their derivatives” (BAYER AG, priority 1996, dated 1997).

For data set [1], the system named is Streptococcus agalactiae Scc 9549. In words: MIC (MHK), agar serial dilution on Iso-Sensitest agar. The data set is classed as cell-based. The conditions noted are these: SCC9549, Stamm Scc 9549, 37°C, read after ca. 20 h, read-out: MHK-Werte.
Another data set concerns Salmonella spp. S 9659. Described as above. The data set is classed as cell-based. The conditions noted are these: SPP.S9659, Stamm S 9659, 37°C, read after ca. 20 h, read-out: MHK-Werte. The text has this: (§1) Die minimalen Hemmkonzentrationen (MHK) der erfindungsgemäßen Verbindungen wurden per Reihenverdünnungsverfahren auf Iso-Sensitest Agar (Oxoid) bestimmt. Für jede Prüfsubstanz wurde eine Reihe von Agarplatten hergestellt, die bei jeweils doppelter Verdünnung abfallende Konzentrationen des Wirkstoffs enthielten. Die Agarplatten wurden mit einem Multipoint-Inokulator (Denley) beimpft. Zum Beimpfen wurden Übernachtkulturen der Erreger verwandt, die zuvor so verdünnt wurden, dass jeder Impfpunkt ca. 10^4 koloniebildende Partikel enthielt. Die beimpften Agarplatten wurden bei 37°C bebrütet, und das Keimwachstum wurde nach ca. 20 Stunden abgelesen. Der MHK-Wert (µg/ml) gibt die niedrigste Wirkstoffkonzentration an, bei der mit bloßem Auge kein Wachstum zu erkennen war. Die Erfassung der MHK-Werte für Mycoplasmen erfolgte mikroskopisch nach einer Inkubationszeit von 5 bis 7 Tagen.
(§2) In der nachstehenden Tabelle sind die MHK-Werte einer der erfindungsgemäßen Verbindungen im Vergleich zu Enrofloxacin als Referenzverbindung aufgeführt.

The next data set is described as follows: in vivo. More on the design: species or system Hunde (Beagle). The conditions noted are these: dog, 5 mg/kg. How it is done:
Die verbesserten pharmakokinetischen Eigenschaften der erfindungsgemäßen Substanz aus […] Enrofloxacin in einer Serumkinetik-Studie an Hunden gezeigt werden. Die Substanzen wurden in einer Dosierung von 5 mg/kg Körpergewicht an jeweils 6 Hunden […] Beagle geprüft. Dabei […].), intramuskulär (i. m.) und oral in […] Cross-Over-Anordnung zur Anwendung. Bei allen Applikationsarten konnte gezeigt werden, dass mit der erfindungsgemäßen Substanz aus […]1/2) und […] und somit eine größere Substanzmenge im Organismus zur […] unter der Serumspiegelkurve, AUC0-24).

Data set [2] concerns Streptococcus suis Scc 9593. Put plainly: MIC (MHK), agar serial dilution on Iso-Sensitest agar. Conditions: SCC9593, Stamm Scc 9593, 37°C, read after ca. 20 h, read-out: MHK-Werte. The data set is classed as cell-based.
The test system of a further data set is Mycoplasma iowae M 95144. Put plainly: MIC (MHK), agar serial dilution, mycoplasma read microscopically. The class given is cell-based. Conditions: Malacoplasma iowae, M95144, Stamm M 95144, read microscopically after 5 to 7 days, read-out: MHK-Werte.
For data set [3], the system named is Fusobacterium necrophorum Ao 9620. In words: MIC (MHK), agar serial dilution on Iso-Sensitest agar. Conditions: AO9620, Stamm Ao 9620, 37°C, read after ca. 20 h, read-out: MHK-Werte. The data set is classed as cell-based.
The test system of data set [4] is Clostridium perfringens Cl 9606. In words: microbe, parasite or virus in culture. The data set is classed as cell-based. Conditions: CL9606, 20 h, read-out: MHK-Werte.
The subject of data set [5] is Pseudomonas aeruginosa P 9503. Put plainly: MIC (MHK), agar serial dilution on Iso-Sensitest agar. The data set is classed as cell-based. Conditions: P9503, Stamm P 9503, 37°C, read after ca. 20 h, read-out: MHK-Werte.
Data set [6] relates to Actinomyces pyogenes Am 9602. The data set is described as above. The data set is classed as cell-based. Conditions: Trueperella pyogenes, AM9602, Stamm Am 9602, 37°C, read after ca. 20 h, read-out: MHK-Werte.
Data set [7] deals with Mycoplasma hyorhinis M 9557. Put plainly: MIC (MHK), agar serial dilution, mycoplasma read microscopically. The data set is classed as cell-based. The conditions noted are these: M9557, Stamm M 9557, read microscopically after 5 to 7 days, read-out: MHK-Werte.
The subject of another data set is E. coli Ec 9658. Put plainly: MIC (MHK), agar serial dilution on Iso-Sensitest agar. The data set is classed as cell-based. The conditions noted are these: Escherichia coli, EC9658, Stamm Ec 9658, 37°C, read after ca. 20 h, read-out: MHK-Werte.
In data set [8] the test system is Actinobacillus pleuropneumoniae App 06/94. The data set is described as above. The data set is classed as cell-based. Conditions: APP06/94, Stamm App 06/94, 37°C, read after ca. 20 h, read-out: MHK-Werte.
Another data set relates to Mycoplasma bovis M 9548. Put plainly: MIC (MHK), agar serial dilution, mycoplasma read microscopically. The data set is classed as cell-based. The conditions noted are these: Mycoplasmopsis bovis, M9548, Stamm M 9548, read microscopically after 5 to 7 days, read-out: MHK-Werte.
Text: as §1, with “Der MHK-Wert (µg/ml) gibt die niedrigste Wirkstoffkonzentration an, bei der mit bloßem Auge kein Wachstum zu erkennen war. Die Erfassung der MHK-Werte für Mycoplasmen erfolgte mikroskopisch nach einer Inkubationszeit von 5 bis 7 Tagen.” left out
as §2

Data set [9] concerns Bordetella bronchiseptica B 9610. Put plainly: MIC (MHK), agar serial dilution on Iso-Sensitest agar. The class given is cell-based. The conditions noted are these: B9610, Stamm B 9610, 37°C, read after ca. 20 h, read-out: MHK-Werte.

Values after ≈ are worked out from the molar mass of the structure shown.

By AUC(0-t) is commonly meant the area under the concentration-time curve up to a stated or last time point. Read a high AUC(0-t) as high exposure. A word on the Cmax: it is the maximum level reached in the sampled fluid or tissue. As a reminder, the MRT is the average time that molecules of a dose stay in the body. Usually half-life stands for the time in which the quantity being followed falls by half. High values mean slow decline, low ones rapid decline. For the compound `N#Cc1c(N2C[C@@H]3CCCN[C@@H]3C2)c(F)cc2c(=O)c(C(=O)O)cn(C3CC3)c12` [Beispiel 1, 8-Cyan-1-cyclopropyl-7-((1S,6S)-2,8-diazabicyclo[4.3.0]nonan-8-yl)-6-fluor-1,4-dihydro-4-oxo-3-chinolincarbonsäure], the MIC was determined as 0.03 µg/mL (≈ 0.0757 µM) in [1]; 0.06 µg/mL (≈ 0.151 µM) in the data set with Salmonella spp. S 9659; 0.06 µg/mL (≈ 0.151 µM) in [2]; 0.06 µg/mL (≈ 0.151 µM) in the data set on Mycoplasma iowae M 95144; 0.03 µg/mL (≈ 0.0757 µM) in data set [3]; 0.25 µg/mL (≈ 0.631 µM) in data set [4]. The MIC in [5] and in data set [6] was 0.25 µg/mL (≈ 0.631 µM) each time. The AUC(0-t) at 24 h stood at 19800 ng·h/mL in the data set “in vivo” (im), 20000 ng·h/mL in “in vivo” (iv) and 17400 ng·h/mL in “in vivo” (po). Also, the figures for the Cmax in “in vivo” (im) and in “in vivo” (po) were 2400 ng/mL and 1300 ng/mL, respectively. In addition, the MRT came out at 8.5 h in the data set “in vivo” (im), 11.5 h in the data set “in vivo” (iv) and 14.7 h in “in vivo” (po). The half-life was 6.9 h in “in vivo” (im), 10.5 h in the data set “in vivo” (iv) and 9.5 h in the data set “in vivo” (po).

For the compound `CCN1CCN(c2cc3c(cc2F)c(=O)c(C(=O)O)cn3C2CC2)CC1` [Enrofloxacin], the MIC in data set [1] came to 0.5 µg/mL (≈ 1.39 µM); in the data set with Salmonella spp. S 9659 it was 0.5 µg/mL (≈ 1.39 µM); in data set [7] it was 0.06 µg/mL (≈ 0.167 µM); in the data set with E. coli Ec 9658, 0.03 µg/mL (≈ 0.0835 µM); in data set [2], 0.5 µg/mL (≈ 1.39 µM); in the data set with Mycoplasma iowae M 95144 it was 0.5 µg/mL (≈ 1.39 µM). Also, the MIC was 0.06 µg/mL (≈ 0.167 µM) in [8]; 4 µg/mL (≈ 11.1 µM) in [3]; 4 µg/mL (≈ 11.1 µM) in data set [4]; 1 µg/mL (≈ 2.78 µM) in data set [5]; 1 µg/mL (≈ 2.78 µM) in [6]; 0.25 µg/mL (≈ 0.696 µM) in the data set with Mycoplasma bovis M 9548. Also, the MIC in [9] amounted to 0.5 µg/mL (≈ 1.39 µM). For the same compound, the AUC(0-t) at 24 h in the data set “in vivo” (im) is 8400 ng·h/mL; in “in vivo” (iv), 10400 ng·h/mL; in “in vivo” (po), 7000 ng·h/mL. The Cmax in “in vivo” (im) worked out at 2100 ng/mL; in the data set “in vivo” (po) it was 1000 ng/mL. Further, the values for the MRT in the data set “in vivo” (im), in the data set “in vivo” (iv) and in the data set “in vivo” (po) were 3.9 h, 4.2 h and 7.3 h, respectively. The half-life was 2.9 h in “in vivo” (im), 3.7 h in “in vivo” (iv) and 4.3 h in the data set “in vivo” (po).
